In patent US20110064694A1, “ANTI-HEPATITIS C ACTIVITY OF MESO-TETRAKIS-PORPHYRIN ANALOGUES” (YALE UNIVERSITY, priority 2009, published 2011):
Where two headings read alike, the source gives them in different places.

Assays:
[1] = system: HCV genotype 1b (Con1) replicon; assay: Effect of serum concentration on anti-HCV activity, luciferase assay in Huh-luc/neo-ET cells; type: cell-based, Hepatitis C virus; settings: for Fold Change in EC50 5% FBS: EC50 at 5% FBS as one fold; for EC50: 72 hrs; for Fold Change in EC50 10% FBS / Fold Change in EC50 20% FBS / Fold Change in EC50 40% FBS: relative to EC50 at 5% FBS
Experimental: Cells were harvested after 72 hrs for luciferase activity assays.
Huh-luc/neo-ET cells were incubated with compound 1, 4 or 6 for 72 hrs and the anti-HCV activity was evaluated by measuring the reduction of reporter luciferase activities.

[2] = system: HCV genotype 2a (JFH-1) replicon; assay: HCV RNA quantification by qRT-PCR in YSGR-JFH cells; type: cell-based, Hepatitis C virus; settings: Hepatitis C virus, 72 h, read-out: antiviral EC50 against YSGR-JFH replicon cells
Experimental: (§1) Cells. HCV genotype 1b (Con 1 isolate) subgenomic replicon cell line with luciferase reporter (Huh-luc/neo-ET) was kindly provided by Ralf Bartenschlager from the University of Heidelberg (37). Huh-luc/neo-ET cells were cultured in Dulbecco's modified Eagle medium (DMEM , supplemented with 10% fetal bovine serum (FBS), 1 mM nonessential amino acids, and 250 μg/ml of G418 (Invitrogen). Genotype 2a (JFH-I isolate) subgenomic replicon cells YSGR-JFH were cultured in DMEM containing 10 To fetal calf serum, 1 mM nonessential amino acids and 400 μg/ml G418 (31). An additional genotype 1b (Conl) replicon cell line (4291BBix) was cultured in similar media but with 3 μg/ml blasticidin (22).
Activity of compound 6 against genotype 2a (JFH-I) replicons. In parallel to Huh-luc/neo-ET cells, 1×10^5 YSGR-JFH cells per well were incubated with DMSO control, compound 6, or recombinant human IFNα-2a (Pestka Biomedical Laboratories) in 6-well plates. Cells were harvested after 72 hrs of co-incubation and HCV RNAs were quantitated by qRT-PCR and normalized as described above.

cytochrome c = cytochrome c (Equus caballus, UniProt P00004); settings: read-out: Kd, binding to cyt c; cited from earlier work
Chain of cytochrome c (P00004 2-105 limits assumed): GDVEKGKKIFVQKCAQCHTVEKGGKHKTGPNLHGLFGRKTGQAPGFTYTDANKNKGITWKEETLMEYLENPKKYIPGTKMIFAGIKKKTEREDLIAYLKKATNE

[3] = system: HCV genotype 1b (Con 1 isolate) subgenomic replicon; assay: microbe, parasite or virus in culture; type: cell-based, Hepatitis C virus; settings: for improvement in anti-HCV EC50 over compound 2: relative to lead compound 2
Experimental: as §1
(§2) Determination of antiviral activities. Ff-luciferase reporter activity was used to monitor the replication of HCV replicons in Huhluc/neo-ET cells free from G418. Replicon cells were seeded at the density of 5×10^3 cells per well in 96-well plates. The following day, replicon cells were incubated in duplicates with DMSO or serially diluted tetraphenylporphyrin (TPP) analogues at 37″C. 72 hrs after co-incubation, cells were lysed with ice-cold passive lysis reagent after PBS wash, and the luciferase activity was measured with the luciferase assay kit (Promega) and Tecan FARCyte luminometer (GE Healthcare) following the manufacturers' descriptions. The relative light units (RLU) were adjusted as percentage readings of the compound-free controls and the 50% effective concentration (EC50) was determined from dose-effect curve by nonlinear regression analysis using Origin 6.1 (OriginLab Software). TPP analogues were also screened in vitro against HIV-I IIIB and HBV as previously described (26,41). Briefly 1×10^3 MT-2 cells per well were exposed in triplets to 0.1TC1D50/cell (50% of the tissue culture infectious dose) of HIV-1 IIIB and cultured in the presence of compounds. The EC50 values were estimated by MTT-based colorimetric quantitation of viral CPE after 5 days. Anti-HBV activities were evaluated in 2.2.15 cells by means of Southern DNA hybridization.

[4] = Cytotoxicity in uninfected MT-2 cells; type: cell-based; settings: human; uninfected MT-2 cells, 5 days
Experimental: (§3) Determination of cytotoxicity and mitochondrial DNA toxicity. Exponentially growing Huh-7 cells were seeded at a density of 1×10^4 cells per well in a 24-well plate and incubated with TPP analogues for 3 days. Cells were fixed and stained with 0.5% methylene blue in 50% ethanol followed by extensive washing. After the plates were air dried, cells were solubilized in 1% sarkosyl and cell growth was determined from the extent of absorption by spectrophotometric measurements at 595 nm (Biotek Instruments). For compounds whose dark color interfered with 595-nm reading, cytotoxicity was measured by the CellTiter-Glo luminesecent cell viability assay following manufacturer's description (Promega). Cytotoxicity in MT-2 cells was determined from colorimetric quantitation of uninfected MT-2 cells after 5 days of coincubation.

[5] = system: mitochondrial DNA content of CEM cells; assay: Mitochondrial DNA toxicity, slot blot of CEM cell lysates; type: cell-based; settings: read-out: Mitochondrial DNA Toxicity IC50 CEM
Experimental: Quantitation of mitochondrial DNA content was performed as previously published (18). Briefly, CEM cell lysates were spotted onto Hybond paper using the Miliford II slot blot apparatus (Schleicher & Schuell). MTDNA was detected with mtDNA-specific probe and then reprobed with Alu probe for internal control. The autoradiographic bands were quantified on scanning densitometer (Molecular Dynamics).

HIV-1 IIIB = assay: Anti-HIV activity in MT-2 cells, MTT quantitation of viral CPE; type: cell-based; settings: read-out: Antiviral Activity EC50 HIV-1 IIIB
Experimental: as §2

[6] = Cytotoxicity in CEM cells; settings: human
HBV = assay: Anti-HBV activity in 2.2.15 cells by Southern DNA hybridization; type: cell-based; settings: read-out: Antiviral Activity EC50 HBV
Experimental: as §2

[7] = Cytotoxicity in Huh-7 cells (methylene blue or CellTiter-Glo); type: cell-based; settings: human; Huh-7 cells, 3 days
Experimental: as §3

MT-2 cells = assay: Cytotoxicity in uninfected MT-2 cells; type: cell-based
Experimental: as §3

CEM cells [8] = assay: Cytotoxicity in CEM cells; settings: read-out: Cytotoxicity CC50 CEM
Huh-7 cells = assay: Cytotoxicity in Huh-7 cells (methylene blue or CellTiter-Glo); type: cell-based
Experimental: as §3

CEM cells [9] = system: CEM cells
[10] = Huh-luc/neo-ET, 72 hrs, luciferase, read-out: Antiviral Activity EC50 HCV

| SMILES | EC50 [3, 10] [µM] | IC50 ([5]; CEM cells) [µM] | EC50 (HIV-1 IIIB; MT-2 cells, 5 days) [µM] | EC50 (HBV) [µM] | CC50 (MT-2 cells) [µM] | CC50 (CEM cells [9]) [µM] | CC50 (Huh-7 cells) [µM] | further results |
| --- | --- | --- | --- | --- | --- | --- | --- | --- |
| O=C(O)c1ccc(-c2c3nc(c(-c4ccc(C(=O)O)cc4)c4ccc([nH]4)c(-c4ccc(C(=O)O)cc4)c4nc(c(-c5ccc(C(=O)O)cc5)c5ccc2[nH]5)C=C4)C=C3)cc1 [Compound 1, Meso-Tetra(4-carboxyphenyl)porphine] |  |  |  |  |  |  |  | Fold Change in EC50 5% FBS [1]: 1.00; EC50 ([1]; Hepatitis C virus, Huh-luc/neo-ET, read-out: EC50 10% FBS, 10% FBS): 0.243 ± 0.036 µM; EC50 ([1]; Hepatitis C virus, Huh-luc/neo-ET, read-out: EC50 20% FBS, 20% FBS): 0.513 ± 0.069 µM; EC50 ([1]; Hepatitis C virus, Huh-luc/neo-ET, 5% FBS, read-out: EC50 5% FBS): 0.124 ± 0.008 µM; EC50 ([1]; Hepatitis C virus, Huh-luc/neo-ET, 40% FBS, read-out: EC50 40% FBS): 0.948 ± 0.089 µM; EC50 ([1]; Hepatitis C virus, Huh-luc/neo-ET, extrapolation of the plot of EC50 vs serum amount, read-out: EC50 0% FBS (Theoretical)): 0.0482 µM; Fold Change in EC50 10% FBS [1]: 1.95 ± 0.16; Fold Change in EC50 20% FBS [1]: 4.16 ± 0.82; Fold Change in EC50 40% FBS [1]: 7.62 ± 0.46; EC50 [2]: 1.9 µM; Kd (cytochrome c): 0.95 ± 0.25 µM; EC50 ([3]; Hepatitis C virus, Huh-luc/neo-ET, 72 hrs, luciferase, read-out: Antiviral Activity EC50 HCV): 0.243 ± 0.0359 µM; improvement in anti-HCV EC50 over compound 2 [3]: Over 7 fold; CC50 at 5 days [4]: > 25 µM; IC50 ([5]; Homo sapiens, CCRF-CEM): > 50 µM; EC50 (HIV-1 IIIB; Human immunodeficiency virus 1, IIIB, MT2, 120 h): > 25 µM; CC50 [6]: 34 µM; EC50 (HBV; Hepatitis B virus): > 10 µM; CC50 at 3 days [7]: > 50 µM |
| O=C(O)CNC(=O)c1ccc(-c2c3nc(c(-c4ccc(C(=O)NCC(=O)O)cc4)c4ccc([nH]4)c(-c4ccc(C(=O)NCC(=O)O)cc4)c4nc(c(-c5ccc(C(=O)NCC(=O)O)cc5)c5ccc2[nH]5)C=C4)C=C3)cc1 [Compound 2] | 1.8 ± 0.7 | 15 ± 3.7 | > 25 | > 10 |  |  |  | CC50 (MT-2 cells; uninfected MT-2 cells, 5 days, read-out: Cytotoxicity CC50 MT-2): 3.2 ± 1.13 µM; CC50 (CEM cells [8]): 27 ± 15.1 µM; CC50 (Huh-7 cells; Huh-7 cells, 3 days, read-out: Cytotoxicity CC50 Huh-7): > 50 µM |
| O=C(O)c1cc(C(=O)O)cc(-c2c3nc(c(-c4cc(C(=O)O)cc(C(=O)O)c4)c4ccc([nH]4)c(-c4cc(C(=O)O)cc(C(=O)O)c4)c4nc(c(-c5cc(C(=O)O)cc(C(=O)O)c5)c5ccc2[nH]5)C=C4)C=C3)c1 [Compound 3] | 13.6 ± 1.1 | 25 | > 100 | 7 | 22 | > 50 | > 50 |  |
| O=C(O)c1ccc(-c2ccc(-c3c4nc(c(-c5ccc(-c6ccc(C(=O)O)cc6)cc5)c5ccc([nH]5)c(-c5ccc(-c6ccc(C(=O)O)cc6)cc5)c5nc(c(-c6ccc(-c7ccc(C(=O)O)cc7)cc6)c6ccc3[nH]6)C=C5)C=C4)cc2)cc1 [Compound 4, Tetracarboxybiphenylporphyrin] | 0.877 ± 0.0289 | 6 | > 25 | > 10 | > 25 | 10 | 32.2 ± 4.14 | EC50 ([1]; 5% FBS, read-out: EC50 5% FBS): 0.633 ± 0.176 µM; EC50 ([1]; 40% FBS, read-out: EC50 40% FBS): 1.48 ± 0.015 µM; Fold Change in EC50 5% FBS [1]: 1.00; EC50 ([1]; extrapolation of the plot of EC50 vs serum amount, read-out: EC50 0% FBS (Theoretical)): 0.38 µM; EC50 ([1]; read-out: EC50 10% FBS, 10% FBS): 0.877 ± 0.029 µM; EC50 ([1]; read-out: EC50 20% FBS, 20% FBS): 1.21 ± 0.056 µM; Fold Change in EC50 10% FBS [1]: 1.46 ± 0.42; Fold Change in EC50 20% FBS [1]: 2.01 ± 0.52; Fold Change in EC50 40% FBS [1]: 2.48 ± 0.74; Kd (cytochrome c): 17 ± 0.84 µM |
| O=C(O)CNC(=O)c1ccc(-c2ccc(-c3c4nc(c(-c5ccc(-c6ccc(C(=O)NCC(=O)O)cc6)cc5)c5ccc([nH]5)c(-c5ccc(-c6ccc(C(=O)NCC(=O)O)cc6)cc5)c5nc(c(-c6ccc(-c7ccc(C(=O)NCC(=O)O)cc7)cc6)c6ccc3[nH]6)C=C5)C=C4)cc2)cc1 [Compound 5] | 0.148 ± 0.006 | > 50 | 1.5 ± 0.436 | > 20 | 13 ± 4.36 | > 50 | > 50 | improvement in anti-HCV EC50 over compound 2 [3]: 12 fold |
| O=C(O)CNC(=O)c1cc(C(=O)NCC(=O)O)cc(-c2ccc(-c3c4nc(c(-c5ccc(-c6cc(C(=O)NCC(=O)O)cc(C(=O)NCC(=O)O)c6)cc5)c5ccc([nH]5)c(-c5ccc(-c6cc(C(=O)NCC(=O)O)cc(C(=O)NCC(=O)O)c6)cc5)c5nc(c(-c6ccc(-c7cc(C(=O)NCC(=O)O)cc(C(=O)NCC(=O)O)c7)cc6)c6ccc3[nH]6)C=C5)C=C4)cc2)c1 [Compound 7] | > 12.5 | 12.5 | 1.05 ± 0.071 | > 10 | 15 ± 4.24 | > 50 | 12.5 |  |
| O=C(O)c1cccc(-c2ccc(-c3c4nc(c(-c5ccc(-c6cccc(C(=O)O)c6)cc5)c5ccc([nH]5)c(-c5ccc(-c6cccc(C(=O)O)c6)cc5)c5nc(c(-c6ccc(-c7cccc(C(=O)O)c7)cc6)c6ccc3[nH]6)C=C5)C=C4)cc2)c1 [Compound 9] | 0.764 ± 0.06 | 22 | > 25 | 8 | > 25 | 50 | 13 ± 0.7 |  |
| C[N+](C)(C)c1ccc(-c2c3nc(c(-c4ccc([N+](C)(C)C)cc4)c4ccc([nH]4)c(-c4ccc([N+](C)(C)C)cc4)c4nc(c(-c5ccc([N+](C)(C)C)cc5)c5ccc2[nH]5)C=C4)C=C3)cc1 [TTMAPP, 5,10,I5,20-Tetrakis (4(trimethylammonio)-phenyl)-21H,23H-porphine, reference compound] |  |  |  |  |  |  |  | EC50 ([3]; HCV replicons in vitro, read-out: anti-HCV EC50): 3.58 µM |
